The values that follow come from ChEMBL document CHEMBL1156061, “Design and synthesis of substituted nicotinamides as inhibitors of soluble epoxide hydrolase” (Bioorg Med Chem Lett, 2009).

pIC50: −log10 of the molar value.

Data set [1] deals with T1, Bifunctional epoxide hydrolase 2 (Homo sapiens, UniProt P34913).
T1 sequence (P34913 whole entry): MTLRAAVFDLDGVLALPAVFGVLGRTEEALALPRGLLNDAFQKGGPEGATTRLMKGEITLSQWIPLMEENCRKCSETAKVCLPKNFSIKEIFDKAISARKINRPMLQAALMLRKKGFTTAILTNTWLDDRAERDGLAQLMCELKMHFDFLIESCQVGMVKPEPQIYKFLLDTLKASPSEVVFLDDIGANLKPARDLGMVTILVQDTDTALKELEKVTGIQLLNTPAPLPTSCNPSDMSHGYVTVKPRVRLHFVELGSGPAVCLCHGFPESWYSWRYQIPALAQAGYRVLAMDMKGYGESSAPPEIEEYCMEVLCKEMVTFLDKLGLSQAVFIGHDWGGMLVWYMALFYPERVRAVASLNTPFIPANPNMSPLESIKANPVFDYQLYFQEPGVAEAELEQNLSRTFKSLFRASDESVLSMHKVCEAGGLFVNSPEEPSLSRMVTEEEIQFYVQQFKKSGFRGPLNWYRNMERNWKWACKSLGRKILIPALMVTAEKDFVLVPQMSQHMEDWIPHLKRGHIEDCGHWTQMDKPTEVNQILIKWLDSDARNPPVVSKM
The data set can be described thus: Inhibition of human soluble EH.

Data set [2] deals with T2, Bifunctional epoxide hydrolase 2 (Rattus norvegicus, UniProt P80299).
T2 sequence (P80299 whole entry): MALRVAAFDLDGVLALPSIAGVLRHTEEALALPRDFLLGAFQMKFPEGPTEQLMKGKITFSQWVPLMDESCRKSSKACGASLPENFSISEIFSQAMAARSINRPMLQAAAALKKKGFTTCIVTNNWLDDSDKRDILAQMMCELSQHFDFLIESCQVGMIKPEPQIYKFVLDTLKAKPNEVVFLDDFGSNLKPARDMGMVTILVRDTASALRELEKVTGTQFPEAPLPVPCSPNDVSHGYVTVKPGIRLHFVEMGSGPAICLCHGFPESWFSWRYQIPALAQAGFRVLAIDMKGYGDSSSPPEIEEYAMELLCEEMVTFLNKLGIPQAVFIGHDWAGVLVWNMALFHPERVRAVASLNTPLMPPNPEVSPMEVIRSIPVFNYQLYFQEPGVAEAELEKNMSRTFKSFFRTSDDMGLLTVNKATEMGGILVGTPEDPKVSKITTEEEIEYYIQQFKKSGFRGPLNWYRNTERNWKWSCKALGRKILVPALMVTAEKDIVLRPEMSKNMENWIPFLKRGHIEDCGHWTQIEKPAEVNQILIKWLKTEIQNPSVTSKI
The data set can be described thus: Inhibition of rat sEH.

The nature of data set [3]: Metabolic stability in human liver microsomes assessed as half life. The format is ADME, Microsome. For orientation: Microsomes from liver hold many membrane-bound enzymes, among them those of drug oxidation.
Data set [4] is described as follows: Metabolic stability in rat liver microsomes assessed as half life. The class given is ADME, Microsome.
Data set [5] has as its target T1, Bifunctional epoxide hydrolase 2. The data set can be described thus: Inhibition of soluble EH in human HepG2 cells by cellular assay. The class given is cell-based.
Data set [6] in a line: Plasma concentration in Sprague-Dawley rat at 5 mg/kg, po after 1 hr. The format is ADME, organism-based. More on the design: dose 5 mg/kg, route oral.

Usually pIC50 stands for the IC50 on a negative log10 scale, so that one unit is a factor of ten. Read a high pIC50 as a small IC50. The term half-life denotes how long it takes for the measured level to halve.

Regarding `O=C(NCCC(c1ccccc1)c1ccccc1)c1ccc(OCC(F)(F)F)nc1`, the pIC50 in data set [1] is 8.27; in data set [2], 8.11. Moreover, the results for the half-life in data set [3] and in data set [4] were 0.633 h and under 0.05 h, respectively.

As to `O=C(NC1CCOCC1)C1CCN(C(=O)NCc2ccc(Cl)cc2Cl)CC1`, the half-life in data set [3] was determined as 5 h; in data set [4] it was 1.73 h.

For `O=C(NCc1ccc(Cl)cc1)c1ccc(OCCC(F)(F)F)nc1`, in data set [2], the pIC50 is 8.15.

On to `O=C(NCCC(c1ccccc1)c1ccccc1)c1ccc(CCN2CCCC2)nc1`, for which the pIC50 in data set [1] was 7.74; in data set [2], 8.05. Also, the half-life in data set [3] was determined as 0.767 h; in data set [4], 0.683 h.

The compound `CS(=O)(=O)c1ccccc1CNC(=O)c1ccc(OCCC(F)(F)F)nc1` showed a pIC50 in data set [1] of 6.57.

On to `CNS(=O)(=O)c1ccc(CNC(=O)c2ccc(OCC(F)(F)F)nc2)c(Cl)c1`, for which the pIC50 in data set [5] was 7.51; in data set [1], 7.85; in data set [2] it was 7.72. In addition, the half-life in data set [3] stood at 1.35 h; in data set [4] it was 0.417 h.

On to `O=C(NCc1ccc(Br)cc1OC(F)(F)F)c1ccc(OCC(F)(F)F)nc1`, for which the pIC50 was 10.00 in data set [5], 7.92 in data set [1] and 8.15 in data set [2]. In addition, the values for the half-life in data set [3] and in data set [4] were 5 h and 0.283 h, respectively.

In the case of `CS(=O)(=O)c1ccc(CNC(=O)c2ccc(OCCC(F)(F)F)nc2)cc1`, the pIC50 was 6.96 in data set [1] and 7.60 in data set [2]. The half-life in data set [3] was 2.6 h; in data set [4] it was 2.88 h.

Compound `Nc1ccc(C(=O)NCc2ccc(Cl)cc2Cl)cn1` showed a pIC50 in data set [2] of 6.37. The results for the half-life in data set [3] and in data set [4] were 0.767 h and 0.733 h, respectively.

Regarding `O=C(NCc1ccccc1OC(F)(F)F)c1ccc(OCC(F)(F)F)nc1`, the pIC50 in data set [2] was 8.22. Also, the values for the half-life in data set [3] and in data set [4] were 1.3 h and 0.117 h, respectively.

Regarding `CCOCCn1cc(C(=O)NCc2ccc(Cl)cc2Cl)ccc1=O`, the pIC50 in data set [1] was 7.80; in data set [2] it was 8.22. Moreover, the half-life in data set [3] was 0.4 h; in data set [4] it was 0.317 h.

On to `N#Cc1ccc(CNC(=O)c2ccc(OCC(F)(F)F)nc2)c(Cl)c1`, for which the pIC50 in data set [5] was 7.92; in data set [1], 7.85. In addition, the half-life in data set [3] turned out to be 3.13 h; in data set [4], 1.75 h.

Turning to `CCOCCn1cc(C(=O)NCCC(c2ccccc2)c2ccccc2)ccc1=O`, the pIC50 in data set [2] is 8.40. The results for the half-life in data set [3] and in data set [4] were 0.0667 h and 0.0833 h, respectively.

Take `O=C(NCCC(c1ccccc1)c1ccccc1)c1ccc(=O)[nH]c1`: the pIC50 in data set [1] was 8.09; in data set [2], 8.00. For the same compound, the half-life worked out at 1.6 h in data set [3] and 0.117 h in data set [4].

On to `CS(=O)(=O)c1ccc(-c2ccc(CNC(=O)c3ccc(OCCC(F)(F)F)nc3)cc2)cc1`, for which the figures for the pIC50 in data set [5], in data set [1] and in data set [2] were 7.62, 7.92 and 8.37, respectively.

Consider `O=C(NCc1ccc(Cl)cc1Cl)c1ccc(CCN2CCCC2)nc1`, for which the pIC50 in data set [1] is 5.82.

Consider `CS(=O)(=O)c1ccc(CNC(=O)c2ccc(OCC(F)(F)F)nc2)c(Cl)c1`, for which the pIC50 in data set [5] is 7.55; in data set [1], 7.82; in data set [2], 7.80. The half-life in data set [3] turned out to be 1.6 h; in data set [4], 1.25 h.

Turning to `O=C(NCc1ccc(Cl)cc1Cl)c1ccc(=O)[nH]c1`, the pIC50 in data set [1] is 6.40; in data set [2] it was 6.48. The half-life in data set [3] turned out to be 1.3 h; in data set [4] it was 3.18 h.

Compound `Nc1ccc(C(=O)NCCC(c2ccccc2)c2ccccc2)cn1` had a pIC50 in data set [2] of 8.07. In addition, the half-life in data set [3] is 0.55 h; in data set [4], 0.0833 h.

As to `O=C(NCc1ccc(Cl)cc1Cl)c1ccc(OCC(F)(F)F)nc1`, the pIC50 in data set [5] was 7.74; in data set [1], 8.18; in data set [2], 8.14. The compound also showed a concentration at 1 h in data set [6] of 2500 nM. Further, the half-life was 2.97 h in data set [3] and 0.117 h in data set [4].

As for `O=C(NCc1ccccc1)c1ccc(OCCC(F)(F)F)nc1`, the pIC50 in data set [1] is 5.92.

In turn, `CS(=O)(=O)c1cc(Cl)ccc1CNC(=O)c1ccc(OCC(F)(F)F)nc1` gave a pIC50 in data set [2] of 7.96. Besides, the half-life worked out at 5 h in data set [3] and 1.65 h in data set [4].
